From PubChem BioAssay AID1648 (Sanford-Burnham Center for Chemical Genomics, 2009)
Calls of active or inactive are those of the source. No rule for the calls is given here.

Molecular target: Serine/threonine-protein kinase mTOR (Homo sapiens) (UniProt P42345)
Test: binders of mTOR FRB domain, biophysical, NMR (AID 1648)
Settings: NMR binding to FRB domain, chemical shift

Serine/threonine-protein kinase mTOR (Homo sapiens), sequence (P42345 2015-2114): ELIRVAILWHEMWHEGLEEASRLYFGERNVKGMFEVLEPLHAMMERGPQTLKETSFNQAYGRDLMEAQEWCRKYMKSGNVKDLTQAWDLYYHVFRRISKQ

COC(=O)C1CCc2ccccc2N1 (centres undefined)
Kd: > 4 mM (inactive)

c1ccc(-c2nc3ccccc3nc2-c2ccccn2)nc1
Kd: > 4 mM (inactive)

CC(=O)n1nc(-c2cccnc2)nc1N
Kd: > 4 mM (inactive)

O=C(CC1NC(=O)NC1=O)Nc1ccccc1 (centres undefined)
Kd: > 4 mM (inactive)

O=C(Nc1ccc2c(c1)OCO2)c1c(F)cccc1F
Kd: > 4 mM (inactive)

CC(=O)O[C@@H]1CC2C(C)(C)[C@H](O)C=C[C@]2(C)C2CC[C@]3(C)C(=CC(=O)O[C@H]3c3ccoc3)[C@@]21C (some centres undefined)
Kd: > 4 mM (inactive)

CC(=O)Nc1ccc(N2CCOCC2)cc1
Kd: > 4 mM (inactive)

CC1=NN2C(=N)CC(=O)N=C2S1
Kd: > 4 mM (inactive)

C=C[C@H]1CN2CC[C@H]1C[C@H]2[C@H](O)c1ccnc2ccccc12
Kd: > 4 mM (inactive)

O=C1CNC(=O)N1c1cccc(Cl)c1
Kd: > 4 mM (inactive)

Cc1ncc(CC(=O)O)s1
Kd: > 4 mM (inactive)

O=C(Nn1cnnc1)c1cccc(C(F)(F)F)c1
Kd: > 4 mM (inactive)

Cc1[nH]ccc2c1[nH]c1cc(=O)ccc12
Kd: > 4 mM (inactive)

Cc1cc(C)n(-c2cccc3cccnc23)n1
Kd: > 4 mM (inactive)

Cn1ncc2c(=O)n(CC(=O)c3ccccc3)cnc21
Kd: > 4 mM (inactive)

COc1cc(OC)c2c(c1Cl)OC1(C2=O)C(O)=CC(=O)CC1C (centres undefined)
Kd: > 4 mM (inactive)

Cc1sc2nc[nH]c(=S)c2c1C
Kd: > 4 mM (inactive)

COc1cc(-c2coc3cc(O[C@@H]4O[C@H](CO)[C@@H](O)[C@H](O)[C@H]4O)c(OC)c(O)c3c2=O)cc(O)c1OC
Kd: > 4 mM (inactive)

O=C(CSC1=NCCS1)N1CCc2ccccc21
Kd: > 4 mM (inactive)

CC(=O)Nc1cccc(N2C(=O)CCC2=O)c1
Kd: > 4 mM (inactive)

O=C(c1ccccc1)N1CCNCC1
Kd: > 4 mM (inactive)

O=C(O)c1ccc(NC(=O)c2cccs2)cc1
Kd: > 4 mM (inactive)

O=C(Nc1cccnc1)c1ccc(Br)s1
Kd: > 4 mM (inactive)

CC(C)=CCc1c(O)cc2occ(-c3ccc4c(c3)OCO4)c(=O)c2c1O
Kd: > 4 mM (inactive)

CNC(=O)C(=O)Nc1c(C)cccc1C
Kd: > 4 mM (inactive)

NC(=O)COc1cccc2cccnc12
Kd: > 4 mM (inactive)

O=C(Oc1ccc2c(c1)CCC2)N1CCOCC1
Kd: > 4 mM (inactive)

COc1ccc(C(O)c2nccn2C)cc1 (centres undefined)
Kd: > 4 mM (inactive)

O=C(O)c1csc(-c2cccnc2)n1
Kd: > 4 mM (inactive)

Cc1ccccc1OCC(=O)O
Kd: > 4 mM (inactive)

COc1ccc2c(c1OC)C(=O)O[C@@H]2[C@@H]1c2cc3c(cc2CCN1C)OCO3
Kd: > 4 mM (inactive)

O=S(=O)(N1CCCCC1)n1nnc2ccccc21
Kd: > 4 mM (inactive)

Cn1c(CNc2ccccc2)cc(=O)n(C)c1=O
Kd: > 4 mM (inactive)

Nc1nc(O)c(C2=c3cc(Cl)ccc3=NC2=O)s1
Kd: > 4 mM (inactive)

COc1cccc2onc(N)c12
Kd: > 4 mM (inactive)

NCCc1c[nH]c2ccccc12
Kd: > 4 mM (inactive)

Cn1nnc2cc(C(=O)NCc3ccco3)ccc21
Kd: > 4 mM (inactive)

Nc1ncnc2c1ncn2CCOc1ccccc1
Kd: > 4 mM (inactive)

S=c1[nH]c2cccnc2[nH]1
Kd: > 4 mM (inactive)

O=C(Nc1ccccc1)Nc1ccccc1
Kd: > 4 mM (inactive)

CN1CCN(c2nc3c(c(=O)[nH]2)CCCC3)CC1
Kd: > 4 mM (inactive)

O/N=C1/CCCc2nonc21
Kd: > 4 mM (inactive)

OCC12COC3c4ccccc4C(OC1)N32 (centres undefined)
Kd: > 4 mM (inactive)

CCOC(=O)c1ccc(F)c(F)c1
Kd: > 4 mM (inactive)

COc1ccc(-c2coc3c(OC)c(OC)cc(OC)c3c2=O)cc1
Kd: > 4 mM (inactive)

O=c1cc(O)nc(SCc2ccccc2)[nH]1
Kd: > 4 mM (inactive)

CC(=O)Nc1ccc2c(c1)CCC2=O
Kd: > 4 mM (inactive)

COc1cc(OC)c(-c2c(OC)cc(OC)cc2OC)c(OC)c1
Kd: > 4 mM (inactive)

Cc1cc(C(=O)NCc2cccs2)cs1
Kd: > 4 mM (inactive)

O=C1CCCC2C3CC(CN12)[C@@H]1CCCCN1C3 (some centres undefined)
Kd: > 4 mM (inactive)

C/C=C(/C)C(=O)O[C@H]1CC[C@@]2(C)[C@@H]3CC[C@H]4[C@]5(O)C[C@H](O)[C@@]6(O)[C@@H](CN7C[C@@H](C)CC[C@H]7[C@@]6(C)O)[C@]5(O)C[C@@]42OC13O
Kd: > 4 mM (inactive)

CCOC(=O)c1c(C)cc(OC)cc1O
Kd: > 4 mM (inactive)

O=C1CCNc2cc3ccccc3cc21
Kd: > 4 mM (inactive)

OCc1cccc2c1OCO2
Kd: > 4 mM (inactive)

COc1ccc(CN2CCNC(=O)C2CC(=O)O)cc1C (centres undefined)
Kd: > 4 mM (inactive)

C/C=C1\[C@H]2C=C(C)C[C@]1(N)c1ccc(=O)[nH]c1C2
Kd: > 4 mM (inactive)

COc1c(C(C)C)oc2cc3oc(=O)ccc3cc12
Kd: > 4 mM (inactive)

Cc1nc2cc(NC(=O)Nc3nccs3)ccc2n1C
Kd: > 4 mM (inactive)

O=C1C=CC(=O)N1c1ccc(N2CCOCC2)cc1
Kd: > 4 mM (inactive)

Nc1cc(F)cc(F)c1
Kd: > 4 mM (inactive)

O=C(O)c1cncc(-c2ccccc2)c1
Kd: > 4 mM (inactive)

Cc1ccccc1NC(=O)c1ccccc1
Kd: > 4 mM (inactive)

COC(=O)c1ccc(/C=C2/NC(=S)NC2=O)cc1
Kd: > 4 mM (inactive)

Cc1nnc(SCc2ccon2)n1-c1ccccc1
Kd: > 4 mM (inactive)

Nc1ccccc1-c1nc2ccccc2[nH]1
Kd: > 4 mM (inactive)

Cc1nc2nc(COc3ccccc3)nn2c(C)c1Cl
Kd: > 4 mM (inactive)

CCOC(=O)c1c(-c2ccncc2)csc1N
Kd: > 4 mM (inactive)

CCNCC(O)c1ccc([N+](=O)[O-])cc1 (centres undefined)
Kd: > 4 mM (inactive)

O=C(O)c1cccc(O)c1O
Kd: > 4 mM (inactive)

Cc1csc2nc(N)nn12
Kd: > 4 mM (inactive)

CC1(C)C2CC[C@]3(C)C(C(=O)C=C4[C@@H]5C[C@@](C)(C(=O)O)CC[C@]5(C)CC[C@]43C)[C@@]2(C)CC[C@@H]1O (some centres undefined)
Kd: > 4 mM (inactive)

CCCn1c(C)cc(=O)[nH]c1=O
Kd: > 4 mM (inactive)

CC(=O)NC(=S)Nc1ccc(S(N)(=O)=O)cc1
Kd: > 4 mM (inactive)

Cc1ccc(CN2CCN(C(=O)C3CCC3)CC2)cc1
Kd: > 4 mM (inactive)

O=C1C[C@@H](c2ccccc2)Oc2cc(O)cc(O)c21
Kd: > 4 mM (inactive)

CC(O)C(=O)N/N=C/c1cccs1 (centres undefined)
Kd: > 4 mM (inactive)

NC(=O)CNC(=O)c1ccccc1
Kd: > 4 mM (inactive)

O=c1[nH]c(NCCO)nnc1Cc1ccccc1
Kd: > 4 mM (inactive)

CCCn1cnc2sc(C(N)=O)c(C)c2c1=O
Kd: > 4 mM (inactive)

COC(=O)c1c(SC)nc(-c2ccccc2)[nH]c1=O
Kd: > 4 mM (inactive)

Cn1ncc(C(=O)NC2CCCCC2)c1Cl
Kd: > 4 mM (inactive)

CC12CCC(O)CC1CCC1C2[C@H](O)CC2(C)C(C3=CC(=O)OC3)CCC12O (some centres undefined)
Kd: > 4 mM (inactive)

COc1cccc(OC)c1C(=O)N1CCOCC1
Kd: > 4 mM (inactive)

CC(=O)O[C@H]1CC[C@]2(C)C3CC[C@@]4(C)C(CC5O[C@@]6(CCC(C)CO6)[C@@H](C)C54)C3CC[C@@H]2C1 (some centres undefined)
Kd: > 4 mM (inactive)

O=C1NC(=S)N/C1=C\c1cccc([N+](=O)[O-])c1
Kd: > 4 mM (inactive)

c1ccc(-n2nnnc2Oc2cccc3cccnc23)cc1
Kd: > 4 mM (inactive)

CC(=O)Nc1ccc(C(=O)n2nc(C)cc2C)cc1
Kd: > 4 mM (inactive)

COc1ccc(-c2cc(=O)c3cc(OC)ccc3o2)cc1
Kd: > 4 mM (inactive)

CCn1nnnc1Oc1ccc(Cl)cc1
Kd: > 4 mM (inactive)

CSc1nc(-c2ccco2)nn1S(C)(=O)=O
Kd: > 4 mM (inactive)

Cc1ccc(-c2c(C)n([O-])c(C)c(C)[n+]2=O)cc1
Kd: > 4 mM (inactive)

Cc1ccc2cccc(OC(=O)N3CCCC3)c2n1
Kd: > 4 mM (inactive)

CC1(C)CC2C1CC[C@]1(C)CCC3C(C(=O)O)CC(=O)O[C@@]32C1 (some centres undefined)
Kd: > 4 mM (inactive)

Cc1cc(Oc2ccccc2)nc(N)n1
Kd: > 4 mM (inactive)

CC1(NC(=O)NCc2ccccc2)CCS(=O)(=O)C1 (centres undefined)
Kd: > 4 mM (inactive)

COC(=O)C1[C@H]2C[C@H]3c4[nH]c5ccccc5c4CCN3C[C@@H]2CC[C@@H]1O (some centres undefined)
Kd: > 4 mM (inactive)

O=C(O)C1NCCc2ccccc21 (centres undefined)
Kd: > 4 mM (inactive)

O=c1/c(=C/c2cccs2)sc2ncnn12
Kd: > 4 mM (inactive)

COc1cc2c3cc1Oc1cc(ccc1O)C[C@@H]1c4c(cc(OC)c(O)c4Oc4ccc(cc4)C[C@@H]3N(C)CC2)CC[N+]1(C)C
Kd: > 4 mM (inactive)

Cc1cc(OC(=O)c2c(C)cc(O)cc2O)cc(O)c1C(=O)O
Kd: > 4 mM (inactive)

O=C(NC(=S)NN1CCOCC1)c1cccs1
Kd: > 4 mM (inactive)

CC(NC(=O)C1CCCCC1)C(=O)NC1=NCCS1 (centres undefined)
Kd: > 4 mM (inactive)

CCN1CCc2c(sc(N)c2C(N)=O)C1
Kd: > 4 mM (inactive)

CN(C)C(=O)Nc1ccc(F)cc1F
Kd: > 4 mM (inactive)

Cc1cc(C(=O)Nc2cccnc2)no1
Kd: > 4 mM (inactive)

c1ccc(CNc2ncnc3nc[nH]c23)nc1
Kd: > 4 mM (inactive)

Nc1ccc(CN2CCOCC2)cc1
Kd: > 4 mM (inactive)

CCCNC(CC(=O)Nc1cccnc1)C(=O)O (centres undefined)
Kd: > 4 mM (inactive)

Cc1nc2ccccc2c(=O)[nH]1
Kd: > 4 mM (inactive)

CC(=O)NC(=S)Nc1ccccc1C
Kd: > 4 mM (inactive)

O=C1CC(c2c[nH]c3ccccc23)C(=O)N1 (centres undefined)
Kd: > 4 mM (inactive)

CC(=O)Nc1ccc(-c2ccc3nncn3n2)cc1
Kd: > 4 mM (inactive)

COC(=O)c1cn(C(=O)OC)c2ccccc12
Kd: > 4 mM (inactive)

CSc1nc(C)cc(Oc2ccc(=O)n(C)n2)n1
Kd: > 4 mM (inactive)

COc1cc(C/C=C/c2ccccc2)c(OC)cc1O
Kd: > 4 mM (inactive)

Cc1ccc(C)n1NC(=O)c1cccs1
Kd: > 4 mM (inactive)

CCNC(=S)N1CCCC(C(N)=O)C1 (centres undefined)
Kd: > 4 mM (inactive)

CC(=O)N/N=C(\C)c1cccc(N)c1
Kd: > 4 mM (inactive)

COc1ccc(NS(=O)(=O)c2ccc(N)cc2)nn1
Kd: > 4 mM (inactive)
